In US20200138056A1, “ANIMAL FEED SUPPLEMENT” (MOOTRAL SA, priority 2017, published 2020):

Key:
ruminal fluid [1] = experiment: in vitro Hohenheim gas test (HGT), volatile fatty acids (VFA) by HPLC; assay type: cell-based, sheep; conditions: Table 2; 98.8 μg/ml
Description: (§1) The in vitro Hohenheim gas test (HGT) including the preparation of all buffers and reagents was carried out according to the protocol of Menke and Steingass (1988), “Menke K. H., Steingass H., Estimation of the energetic feed value obtained from chemical analysis and gas production using rumen fluid, Anim. Res. Dev. 28, 7-55”, the contents of which are incorporated herein by reference.
Briefly, ruminal fluid was strained through four layers of gauze (1 mm pore size, type 17 MedPro, Novamed AG, Flawil, Switzerland), before being mixed with preheated, reduced Menke buffer (Menke and Steingass, 1988). The ruminal fluid/buffer mixture was then dispensed into pre-warmed incubation units containing the respective test additives. […] After 8 hours, total gas and liquid volumes were recorded from the calibrated scale printed on the incubation units and fermentation was terminated by decanting only the incubation liquid from the incubation units while fermentation gas was left inside. […]
Fermentation gas was analysed on a Hewlett Packard gas chromatograph (model 5890 Series II, Avondale, Pa., USA) for methane concentration. For the analysis of the volatile fatty acids (VFA), samples were prepared according to the method of Doane et al. (1998) and determined by HPLC (LaChrom, L-7000 series, Hitachi Ltd., Tokyo, Japan) following the protocol of Ehrlich et al. (1981). […]

ruminal fluid [2] = experiment: in vitro Hohenheim gas test (HGT), methane concentration in fermentation gas; assay type: cell-based, sheep; conditions: 98.8 μg/ml; for Average Reduction (%) / Percentage of Control (First Run) / Percentage of Control (Second Run): methane; for Average Reduction (%): average of two runs
Description: as §1
Briefly, ruminal fluid was strained through four layers of gauze (1 mm pore size, type 17 MedPro, Novamed AG, Flawil, Switzerland), before being mixed with preheated, reduced Menke buffer (Menke and Steingass, 1988). The ruminal fluid/buffer mixture was then dispensed into pre-warmed incubation units containing the respective test additives. Each airtight syringe unit contained 25 ml of a ruminal fluid/buffer mixture (1:3; v/v), 300 mg dried and ground total mixed ration (TMR) and […] of the test substrate prepared to give a desired concentration ml^−1. Each test substrate and controls were tested in six replicates, with each run including a substrate control (rumen fluid plus 300 mg dried and ground substrate of the total mixed ration (TMR) fed to the fistulated sheep from which the ruminal fluid was obtained). Each substrate was also tested on different days to allow for variability in the microbial community. This mixture was incubated for 8 hours at a constant temperature of 39° C. After 8 hours, total gas and liquid volumes were recorded from the calibrated scale printed on the incubation units and fermentation was terminated by decanting only the incubation liquid from the incubation units while fermentation gas was left inside. Then […] of gas was drawn from the incubation units with a Hamilton syringe (Hamilton, AG, Bonaduz, Switzerland) through a gas-tight septum covering the second outlet of the modified units. The main constituents of the flavonoid mix were naringin and neohesperidin at a ratio of 2.10:0.92. Monensin, a polyether antibiotic isolated from Streptomyces cinnamonensis, was used as a positive control.
Fermentation gas was analysed on a Hewlett Packard gas chromatograph (model 5890 Series II, Avondale, Pa., USA) for methane concentration. For the analysis of the volatile fatty acids (VFA), samples were prepared according to the method of Doane et al. (1998) and determined by HPLC (LaChrom, L-7000 series, Hitachi Ltd., Tokyo, Japan) following the protocol of Ehrlich et al. (1981). Reduction in methane emission results in accumulation of H2, which leads to the decreases of acetate:propionate ratio and acetate:butyrate ratio. This decreased ratio indicates an increase in propionate and butyrate (as formation of propionate and butyrate uses up the H2). The increase in propionate would then result in an increase of meat productivity in ruminants, while the increase in butyrate results in an increase of milk productivity in ruminants.
The in vitro Hohenheim gas test (HGT) was used to measure average reduction in methane using a composition comprising allicin and a green tea extract and a composition comprising allicin and a pomegranate extract. The green tea and pomegranate extracts were purchased from Ethical Natural Inc. (USA).
A composition comprising allicin and the flavonoid mix used in Example 1 was also tested. Monensin, a polyether antibiotic isolated from Streptomyces cinnamonensis, was used as a positive control.

**Q.** How did the “Butyrate Percentage of Control (%)” value (ruminal fluid [1]) turn out when `CC[C@@]1([C@@H]2O[C@@H]([C@H]3O[C@@](O)(CO)[C@H](C)C[C@@H]3C)C[C@@H]2C)CC[C@H]([C@]2(C)CC[C@]3(C[C@H](O)[C@@H](C)[C@@H]([C@@H](C)[C@@H](OC)[C@H](C)C(=O)O)O3)O2)O1` [Monensin] was run?
**A.** 73%

**Q.** And the “Propionate Percentage of Control (%)” value (ruminal fluid [1])?
**A.** 116%

**Q.** And the “Average Methane Concentration (%) (First Run)” value (ruminal fluid [2]; Table 1, 8 h, 39° C.)?
**A.** 8.89%

**Q.** What about the “Average Methane Concentration (%) (Second Run)” value (ruminal fluid [2]; Table 1, 8 h, 39° C.) of the same compound?
**A.** 9.71%

**Q.** What about the “Average Reduction (%)” value (ruminal fluid [2]; Table 1) of the same compound?
**A.** 27%

**Q.** And the “Percentage of Control (First Run)” value (ruminal fluid [2]; Table 1)?
**A.** 73%

**Q.** And the “Percentage of Control (Second Run)” value (ruminal fluid [2]; Table 1)?
**A.** 74%

**Q.** And the “Average Methane Concentration (%) (First Run)” value (ruminal fluid [2]; Table 3)?
**A.** 8.2%

**Q.** And the “Average Methane Concentration (%) (Second Run)” value (ruminal fluid [2]; Table 3)?
**A.** 9.9%

**Q.** And the “Average Reduction (%)” value (ruminal fluid [2]; Table 3)?
**A.** 27%

**Q.** And the “Percentage of Control (First Run)” value (ruminal fluid [2]; Table 3)?
**A.** 66%

**Q.** And the “Percentage of Control (Second Run)” value (ruminal fluid [2]; Table 3)?
**A.** 80%

**Q.** What about the “Average Methane Concentration (%) (First Run)” value (ruminal fluid [2]; Table 4) of the same compound?
**A.** 8.1%

**Q.** And the “Average Methane Concentration (%) (Second Run)” value (ruminal fluid [2]; Table 4)?
**A.** 7.1%

**Q.** What about the “Average Reduction (%)” value (ruminal fluid [2]; Table 4) of the same compound?
**A.** 33%

**Q.** And the “Percentage of Control (First Run)” value (ruminal fluid [2]; Table 4)?
**A.** 67%

**Q.** And the “Percentage of Control (Second Run)” value (ruminal fluid [2]; Table 4)?
**A.** 66%
